The subject of series [1] is CT26.WT (mouse colon adenocarcinoma) tumors. Further details: species or system male BALB/C mice. Conditions: in vivo.
For a further series, the system named is T24 cells. The series is classed as cell-based, human.
Series [2] can be described thus: Binding of Fe^3+ to BCG: zeta potential (Zeta Sizer Ultra). The series is classed as physicochemical. Conditions: in water, 0.04 mg/mL BCG, 100 uM Fe(NO3)3, measured immediately. As to the method: Zeta potential was measured immediately using a Zeta Sizer Ultra (Malvern).

In the case of “Ru(4,4′-dimethyl-2,2′-bipyridine)2(2-(2′,2″:5″,2′″-terthiophene)-imidazo[4,5-f][1,10]phenanthroline) [RUVIDAR]”, in series [1], the survival result is reported as “significantly increases survival, but the effect size is small” and the tumor growth result is reported as “tumor growth suppression”.

For `O=[N+]([O-])[O-].O=[N+]([O-])[O-].O=[N+]([O-])[O-].[Fe+3]` [Fe^3+, Fe(NO3)3], in the series with T24 cells, the cell kill worked out at 1.4%. Also, the zeta potential entry in series [2] is given as “not detectable”.

These data come from patent US20250375511A1 (priority 2024, published 2025).
